Measurements published in PubChem BioAssay AID2060501 (Molecular Pharmacology Branch, DTP, NCI, 2025).

Tested on: 282377-053-R-J1-PDC complex spheroids, viability
Experiment: Anticancer human tumor 282377-053-R-J1-PDC patient-derived colon adenocarcinoma cell line growth inhibition [GQUAD]
Details: for IC50: curve of first compound; for viability, T/C: stronger effect = lower value
Description: DNA G-quadruplex Stabilizer Agents in Combinations in Complex Spheroids
A high-throughput screen of multi-cell type tumor spheroids was designed to identify active combinations of DNA G-quadruplex stabilizer agents and targeted small molecules. Complex spheroids include a stromal component modeled by human endothelial cells (HUVEC) and fibroblasts modeled by human mesenchymal stem cells (MSCs). The concentration ranges selected for each drug and investigational agent were based upon clinically achievable concentrations if the clinical Cmax of the agent was known.
Compounds. The drugs and investigational agents: pidnarulex (CX-5461; NSC782164), APTO-253 (NSC789042), BRACO-19 (NSC847499), peposertib (NSC802822), ceralasertib (NSC780249), elimusertib (NSC800525), camonsertib (NSC841442), AZD-1390 (NSC803789), olaparib (NSC753686), talazoparib (NSC767125), ART-558 (NSC835418), sotorasib (NSC818433), MRTX-1133 (NSC836407), SN-38 (NSC673596), topotecan (NSC609699), etoposide (NSC141540), doxorubicin (NSC123127), gemcitabine (NSC613327), 5-fluorouracil (NSC19893), paclitaxel (NSC125973), vemurafenib (NSC761431), panobinostat (NSC761190), R-306465 (JNJ-16241199; NSC773264), adavosertib (NSC754352), TP-3654 (NSC805149), carboplatin (NSC241240), KSQ-4279 (NSC840948), and staurosporine (NSC755774) were obtained from the National Cancer Institute (NCI) Developmental Therapeutics Program Chemical Repository (34). The FDA-approved anticancer drug set is available from the NCI Developmental Therapeutics Program. […] The stock solutions were prepared in dimethyl sulfoxide (DMSO, Sigma-Aldrich, St. Louis, MO, cat. D2650) at 800-fold the tested concentration and stored at -70 degrees C prior to their use. All drugs and investigational agents were tested over a range starting from a high concentration at or near the clinical Cmax and decreasing in half-log increments. If the clinical Cmax for an agent had not been determined, the highest concentration tested was 10 microM.
2.3 Cell Culture. All cells were maintained in an incubator at 37 degrees C and 5% CO2 with 95% humidity. The PDC lines were cultured according to standard operating procedures established by the NCI PDMR. All PDCs were thawed and cultured in Matrigel-coated flasks prepared with a working solution of 1X Ham's F-12 nutrient mix, without supplementation (Invitrogen, cat. 11765054), 100 U/mL penicillin-streptomycin (Invitrogen, cat. 15140122), and 2.5% Matrigel (Corning Inc., cat. 354248) for the first three passages. The 857933-349-R-J2-PDC line was cultured in 6C/Colon 1B media, which includes advanced DMEM/F-12 (Thermo Fisher Scientific, cat. 12634028), 10 mM HEPES (Thermo Fisher Scientific, cat. 15630080), 1X GlutaMAX supplement (Thermo Fisher Scientific, cat. 35050061), 0.1 mg/mL primocin (InvivoGen, cat. ant-pm-2), 10% defined fetal bovine serum, heat inactivated (HyClone Laboratories Inc., cat. SH30070.03HI), 50% L-WRN conditioned media (ATCC, cat. CRL-3276), 1.25 mM N-Acetyl-L-cysteine (Sigma-Aldrich, cat. A9165), 10 mM nicotinamide (Sigma-Aldrich, cat. N0636), 1X B-27 supplement (Thermo Fisher Scientific, cat. 17504044), 1X N-2 supplement (Thermo Fisher Scientific, cat. 17502048), 10 microM Y-27632 dihydrochloride (Tocris Bioscience, cat. 1254), and 50 ng/mL human EGF recombinant protein (Thermo Fisher Scientific, cat. PHG0311). The 485176-168-R4-J1-PDC line was cultured in Panc media, which includes all 6C/Colon 1B media components plus 100 ng/mL human FGF-10 (Thermo Fisher Scientific, cat. 100-26), 500 nM SB-431542 (Selleckchem, cat. S1067), and gastrin (Tocris, cat. 3006).
[…]

[1] = second compound 0.0316 µM, first compound 0.0316 µM
[2] = second compound 0.0316 µM, first compound 0.316 µM
[3] = second compound 0.1 µM, first compound 0.0316 µM
[4] = second compound 0.1 µM, first compound 0.316 µM
[5] = second compound 0.316 µM, first compound 0.0316 µM
[6] = second compound 0.316 µM, first compound 0.316 µM
[7] = second compound 1 µM, first compound 0.0316 µM
[8] = second compound 1 µM, first compound 0.316 µM
[9] = second compound 3.16 µM, first compound 0.0316 µM
[10] = second compound 3.16 µM, first compound 0.316 µM
[11] = second compound 10 µM, first compound 0.0316 µM
[12] = second compound 10 µM, first compound 0.316 µM
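Further: spheroids exposed to compounds for 7 days before readout.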
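Wherever viability, T/C is given: percent of vehicle DMSO control viability with 100% = untreated-like growth.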

CC[C@@]1(O)C(=O)OCc2c1cc1n(c2=O)Cc2cc3c(CN(C)C)c(O)ccc3nc2-1 + Cc1[nH]c2ccc(F)cc2c1-c1nc2c3cccnc3c3ncccc3c2[nH]1
IC50 (second compound 0.0316 µM): > 316 nM | IC50 (second compound 0.1 µM): > 316 nM | IC50 (second compound 0.316 µM): > 316 nM | IC50 (second compound 1 µM): > 316 nM | IC50 (second compound 3.16 µM): 130 nM | IC50 (second compound 10 µM): < 0.999 nM | viability, T/C (second compound 0.0316 µM, first compound 0.000999 µM): 92.6% | viability, T/C (second compound 0.0316 µM, first compound 0.00316 µM): 117% | viability, T/C (second compound 0.0316 µM, first compound 0.00999 µM): 116% | viability, T/C [1]: 93.1% | viability, T/C (second compound 0.0316 µM, first compound 0.0999 µM): 91.5% | viability, T/C [2]: 49.9% | viability, T/C (second compound 0.1 µM, first compound 0.000999 µM): 126% | viability, T/C (second compound 0.1 µM, first compound 0.00316 µM): 93.2% | viability, T/C (second compound 0.1 µM, first compound 0.00999 µM): 87.1% | viability, T/C [3]: 92% | viability, T/C (second compound 0.1 µM, first compound 0.0999 µM): 93.2% | viability, T/C [4]: 58.8% | viability, T/C (second compound 0.316 µM, first compound 0.000999 µM): 80.3% | viability, T/C (second compound 0.316 µM, first compound 0.00316 µM): 104% | viability, T/C (second compound 0.316 µM, first compound 0.00999 µM): 103% | viability, T/C [5]: 94.2% | viability, T/C (second compound 0.316 µM, first compound 0.0999 µM): 84% | viability, T/C [6]: 61.9% | viability, T/C (second compound 1 µM, first compound 0.000999 µM): 86.6% | viability, T/C (second compound 1 µM, first compound 0.00316 µM): 109% | viability, T/C (second compound 1 µM, first compound 0.00999 µM): 94.8% | viability, T/C [7]: 102% | viability, T/C (second compound 1 µM, first compound 0.0999 µM): 94.8% | viability, T/C [8]: 54.3% | viability, T/C (second compound 3.16 µM, first compound 0.000999 µM): 77.8% | viability, T/C (second compound 3.16 µM, first compound 0.00316 µM): 79.4% | viability, T/C (second compound 3.16 µM, first compound 0.00999 µM): 81.4% | viability, T/C [9]: 58.3% | viability, T/C (second compound 3.16 µM, first compound 0.0999 µM): 64% | viability, T/C [10]: 24.5% | viability, T/C (second compound 10 µM, first compound 0.000999 µM): 36.6% | viability, T/C (second compound 10 µM, first compound 0.00316 µM): 35.9% | viability, T/C (second compound 10 µM, first compound 0.00999 µM): 48.3% | viability, T/C [11]: 41.5% | viability, T/C (second compound 10 µM, first compound 0.0999 µM): 31.3% | viability, T/C [12]: 17.5%

Nc1ccn(C2OC(CO)C(O)C2(F)F)c(=O)n1 (centres undefined) + Cc1[nH]c2ccc(F)cc2c1-c1nc2c3cccnc3c3ncccc3c2[nH]1
IC50 (second compound 0.0316 µM): 211 nM | IC50 (second compound 0.1 µM): 222 nM | IC50 (second compound 0.316 µM): 216 nM | IC50 (second compound 1 µM): 228 nM | IC50 (second compound 3.16 µM): 81 nM | IC50 (second compound 10 µM): < 31.6 nM | viability, T/C [1]: 119% | viability, T/C (second compound 0.0316 µM, first compound 0.1 µM): 74.1% | viability, T/C [2]: 35.8% | viability, T/C (second compound 0.0316 µM, first compound 1 µM): 30.9% | viability, T/C (second compound 0.0316 µM, first compound 3.16 µM): 29.4% | viability, T/C (second compound 0.0316 µM, first compound 10 µM): 21.1% | viability, T/C [3]: 106% | viability, T/C (second compound 0.1 µM, first compound 0.1 µM): 81.1% | viability, T/C [4]: 35.8% | viability, T/C (second compound 0.1 µM, first compound 1 µM): 29.5% | viability, T/C (second compound 0.1 µM, first compound 3.16 µM): 31.8% | viability, T/C (second compound 0.1 µM, first compound 10 µM): 18.9% | viability, T/C [5]: 97% | viability, T/C (second compound 0.316 µM, first compound 0.1 µM): 86.3% | viability, T/C [6]: 32% | viability, T/C (second compound 0.316 µM, first compound 1 µM): 28.4% | viability, T/C (second compound 0.316 µM, first compound 3.16 µM): 26.7% | viability, T/C (second compound 0.316 µM, first compound 10 µM): 20.5% | viability, T/C [7]: 105% | viability, T/C (second compound 1 µM, first compound 0.1 µM): 74.4% | viability, T/C [8]: 37.4% | viability, T/C (second compound 1 µM, first compound 1 µM): 30.1% | viability, T/C (second compound 1 µM, first compound 3.16 µM): 23% | viability, T/C (second compound 1 µM, first compound 10 µM): 16% | viability, T/C [9]: 74.8% | viability, T/C (second compound 3.16 µM, first compound 0.1 µM): 44.5% | viability, T/C [10]: 18.8% | viability, T/C (second compound 3.16 µM, first compound 1 µM): 14.9% | viability, T/C (second compound 3.16 µM, first compound 3.16 µM): 17.6% | viability, T/C (second compound 3.16 µM, first compound 10 µM): 9.41% | viability, T/C [11]: 39.2% | viability, T/C (second compound 10 µM, first compound 0.1 µM): 28.9% | viability, T/C [12]: 16.2% | viability, T/C (second compound 10 µM, first compound 1 µM): 10.3% | viability, T/C (second compound 10 µM, first compound 3.16 µM): 10.9% | viability, T/C (second compound 10 µM, first compound 10 µM): 8.65%
